# According to patent publication US10517889B2, “Modulators of SMAD7 expression” (Ionis Pharmaceuticals, Inc., priority 2017, dated 2019):
# Strand notation (5' to 3'): a small letter for the sugar, then the base; units joined by * are phosphorothioate-linked, units joined directly phosphodiester-linked; [ ] holds rarer units or linkages, { } end groups; capitals alone tell only the bases. k = constrained ethyl (cEt); [5mC] = 5-methylcytosine; d = 2'-deoxy (DNA)
# System: human SMAD7 mRNA
# Test: Antisense inhibition of human SMAD7 mRNA expression in Hep3B cells by 3-10-3 cEt gapmers, 10,000 nM, electroporation (Example 2)
# Format: cell-based
# Conditions: Hep3B cells, approximately 24 hours
# Summary of the method: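 SMAD7 mRNA was measured by real-time PCR (RTS5062) with RiboGreen total-RNA normalization, about 24 h after 10,000 nM gapmer was delivered by electroporation into Hep3B cells at 20,000 per well. Gapmers were 16-mer 3-10-3 cEt, fully phosphorothioate; values are % inhibition versus untreated controls.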
# [1] = electroporation with 10,000 nM antisense oligonucleotide, primer probe set RTS5062, relative to untreated control cells
# [2] = electroporation with 10,000 nM antisense oligonucleotide, SMAD7 mRNA by RT-PCR (RTS5062), relative to untreated control cells
# [3] = electroporation, 10,000 nM, 3-10-3 cEt gapmers targeting SEQ ID NO: 3 and 4
# [4] = electroporation, 10,000 nM antisense oligonucleotide, RTS5062, relative to untreated control cells
# [5] = electroporation with 10,000 nM antisense oligonucleotide, RTS5062, percent inhibition of SMAD7 mRNA relative to untreated control cells
substance,measurement,setting,value
799245 (kG*kT*kA*dT*d[5mC]*dT*dG*dG*dG*d[5mC]*d[5mC]*dA*d[5mC]*kT*kG*kG; antisense) [compound 799245],% inhibition of SMAD7 mRNA expression,[1],18%
799246 (antisense kA*k[5mC]*kA*dG*dT*dA*dT*d[5mC]*dT*dG*dG*dG*d[5mC]*k[5mC]*kA*k[5mC]) [compound 799246],% inhibition of SMAD7 mRNA expression,[1],74%
799247 (antisense kA*k[5mC]*kG*dA*d[5mC]*dA*dG*dT*dA*dT*d[5mC]*dT*dG*kG*kG*k[5mC]) [compound 799247],% inhibition of SMAD7 mRNA expression,[1],61%
799248 (antisense kG*k[5mC]*k[5mC]*dA*d[5mC]*dG*dA*d[5mC]*dA*dG*dT*dA*dT*k[5mC]*kT*kG) [compound 799248],% inhibition of SMAD7 mRNA expression,[1],40%
799249 (antisense kG*k[5mC]*kG*dG*d[5mC]*d[5mC]*dA*d[5mC]*dG*dA*d[5mC]*dA*dG*kT*kA*kT) [compound 799249],% inhibition of SMAD7 mRNA expression,[1],26%
799250 (antisense kT*kG*k[5mC]*dG*d[5mC]*dG*dG*d[5mC]*d[5mC]*dA*d[5mC]*dG*dA*k[5mC]*kA*kG) [compound 799250],% inhibition of SMAD7 mRNA expression,[1],21%
799251 (antisense kA*kG*kG*dT*dG*d[5mC]*dG*d[5mC]*dG*dG*d[5mC]*d[5mC]*dA*k[5mC]*kG*kA) [compound 799251],% inhibition of SMAD7 mRNA expression,[1],37%
799252 (antisense k[5mC]*kA*kA*dA*dG*dG*dT*dG*d[5mC]*dG*d[5mC]*dG*dG*k[5mC]*k[5mC]*kA) [compound 799252],% Inhibition,[2],41%
799253 (antisense k[5mC]*kT*k[5mC]*d[5mC]*dA*dA*dA*dG*dG*dT*dG*d[5mC]*dG*k[5mC]*kG*kG) [compound 799253],% Inhibition,[2],0%
799254 (antisense kA*kA*kA*d[5mC]*dT*d[5mC]*d[5mC]*dA*dA*dA*dG*dG*dT*kG*k[5mC]*kG) [compound 799254],% Inhibition,[2],11%
799255 (antisense k[5mC]*kA*kA*dA*dA*d[5mC]*dT*d[5mC]*d[5mC]*dA*dA*dA*dG*kG*kT*kG) [compound 799255],% Inhibition,[2],0%
799256 (antisense k[5mC]*k[5mC]*kA*dA*dA*dA*d[5mC]*dT*d[5mC]*d[5mC]*dA*dA*dA*kG*kG*kT) [compound 799256],% Inhibition,[2],0%
799257 (antisense k[5mC]*k[5mC]*k[5mC]*d[5mC]*dA*dA*dA*dA*d[5mC]*dT*d[5mC]*d[5mC]*dA*kA*kA*kG) [compound 799257],% Inhibition,[2],27%
799258 (antisense kG*k[5mC]*k[5mC]*d[5mC]*d[5mC]*dA*dA*dA*dA*d[5mC]*dT*d[5mC]*d[5mC]*kA*kA*kA) [compound 799258],% Inhibition,[2],4%
799259 (antisense kT*kG*k[5mC]*d[5mC]*d[5mC]*d[5mC]*dA*dA*dA*dA*d[5mC]*dT*d[5mC]*k[5mC]*kA*kA) [compound 799259],% Inhibition,[2],45%
799260 (antisense kT*kT*kG*d[5mC]*d[5mC]*d[5mC]*d[5mC]*dA*dA*dA*dA*d[5mC]*dT*k[5mC]*k[5mC]*kA) [compound 799260],% Inhibition,[2],27%
799261 (antisense kT*kT*kT*dG*d[5mC]*d[5mC]*d[5mC]*d[5mC]*dA*dA*dA*dA*d[5mC]*kT*k[5mC]*k[5mC]) [compound 799261],% Inhibition,[2],52%
799262 (antisense k[5mC]*kT*k[5mC]*dT*dT*dT*dG*d[5mC]*d[5mC]*d[5mC]*d[5mC]*dA*dA*kA*kA*k[5mC]) [compound 799262],% inhibition of SMAD7 mRNA expression,[1],0%
799263 (antisense kT*k[5mC]*k[5mC]*dA*dA*d[5mC]*dT*d[5mC]*dT*d[5mC]*dT*dT*dT*kG*k[5mC]*k[5mC]) [compound 799263],% inhibition of SMAD7 mRNA expression,[1],0%
799264 (antisense k[5mC]*k[5mC]*kA*dT*d[5mC]*d[5mC]*dA*dA*d[5mC]*dT*d[5mC]*dT*d[5mC]*kT*kT*kT) [compound 799264],% inhibition of SMAD7 mRNA expression,[1],16%
799265 (antisense k[5mC]*kT*kT*d[5mC]*d[5mC]*dA*dT*d[5mC]*d[5mC]*dA*dA*d[5mC]*dT*k[5mC]*kT*k[5mC]) [compound 799265],% inhibition of SMAD7 mRNA expression,[1],3%
799266 (antisense kG*kG*k[5mC]*d[5mC]*dT*dT*d[5mC]*d[5mC]*dA*dT*d[5mC]*d[5mC]*dA*kA*k[5mC]*kT) [compound 799266],% inhibition of SMAD7 mRNA expression,[1],37%
799267 (antisense kG*kT*kT*d[5mC]*dG*dG*d[5mC]*d[5mC]*dT*dT*d[5mC]*d[5mC]*dA*kT*k[5mC]*k[5mC]) [compound 799267],% inhibition of SMAD7 mRNA expression,[1],62%
799268 (antisense kT*k[5mC]*k[5mC]*dA*dG*dT*dT*d[5mC]*dG*dG*d[5mC]*d[5mC]*dT*kT*k[5mC]*k[5mC]) [compound 799268],% inhibition of SMAD7 mRNA expression,[3],24%
799269 (antisense kA*kG*kA*d[5mC]*dT*d[5mC]*d[5mC]*dA*dG*dT*dT*d[5mC]*dG*kG*k[5mC]*k[5mC]) [compound 799269],% inhibition of SMAD7 mRNA expression,[3],20%
799270 (antisense kA*kG*kT*d[5mC]*dA*dG*dG*d[5mC]*dT*d[5mC]*dA*dA*dT*kG*kA*kG) [compound 799270],% inhibition of SMAD7 mRNA expression,[4],16%
799271 (antisense k[5mC]*kT*k[5mC]*dG*dA*dG*dT*d[5mC]*dA*dG*dG*d[5mC]*dT*k[5mC]*kA*kA) [compound 799271],% inhibition of SMAD7 mRNA expression,[4],60%
799272 (antisense kA*kT*kT*dA*d[5mC]*dT*d[5mC]*dG*dA*dG*dT*d[5mC]*dA*kG*kG*k[5mC]) [compound 799272],% Inhibition,[5],55%
799273 (antisense kA*kT*k[5mC]*dA*dT*dT*dA*d[5mC]*dT*d[5mC]*dG*dA*dG*kT*k[5mC]*kA) [compound 799273],% Inhibition,[5],41%
799274 (antisense kT*kT*kA*dA*dT*d[5mC]*dA*dT*dT*dA*d[5mC]*dT*d[5mC]*kG*kA*kG) [compound 799274],% Inhibition,[5],24%
799275 (antisense k[5mC]*kA*kG*dT*dT*dA*dA*dT*d[5mC]*dA*dT*dT*dA*k[5mC]*kT*k[5mC]) [compound 799275],% Inhibition,[5],0%
799276 (antisense kG*kG*k[5mC]*dA*dG*d[5mC]*d[5mC]*dA*dG*dT*dT*dA*dA*kT*k[5mC]*kA) [compound 799276],% Inhibition,[5],29%
799277 (antisense k[5mC]*kT*k[5mC]*d[5mC]*dG*dG*dG*d[5mC]*dA*dG*d[5mC]*d[5mC]*dA*kG*kT*kT) [compound 799277],% Inhibition,[5],21%
799278 (antisense k[5mC]*k[5mC]*k[5mC]*dG*dT*d[5mC]*dT*dG*dG*dG*d[5mC]*dT*d[5mC]*k[5mC]*kG*kG) [compound 799278],% Inhibition,[5],14%
799279 (antisense kA*k[5mC]*k[5mC]*dT*dT*dG*dT*d[5mC]*dA*d[5mC]*d[5mC]*d[5mC]*dG*kT*k[5mC]*kT) [compound 799279],% Inhibition,[5],48%
799280 (antisense kA*kG*k[5mC]*dA*d[5mC]*d[5mC]*dT*dT*dG*dT*d[5mC]*dA*d[5mC]*k[5mC]*k[5mC]*kG) [compound 799280],% inhibition of SMAD7 mRNA expression,[4],44%
799281 (antisense k[5mC]*kA*k[5mC]*dA*dG*d[5mC]*dA*d[5mC]*d[5mC]*dT*dT*dG*dT*k[5mC]*kA*k[5mC]) [compound 799281],% inhibition of SMAD7 mRNA expression,[4],25%
799282 (antisense kA*k[5mC]*kA*dG*dA*d[5mC]*d[5mC]*dA*d[5mC]*dA*dG*d[5mC]*dA*k[5mC]*k[5mC]*kT) [compound 799282],% inhibition of SMAD7 mRNA expression,[4],16%
799283 (antisense kA*kA*kG*dA*d[5mC]*dA*dG*dA*d[5mC]*d[5mC]*dA*d[5mC]*dA*kG*k[5mC]*kA) [compound 799283],% inhibition of SMAD7 mRNA expression,[4],34%
799284 (antisense k[5mC]*kG*kT*dA*dA*dG*dA*d[5mC]*dA*dG*dA*d[5mC]*d[5mC]*kA*k[5mC]*kA) [compound 799284],% inhibition of SMAD7 mRNA expression,[4],51%
799285 (antisense kG*kG*k[5mC]*dT*dT*d[5mC]*dA*d[5mC]*dT*dG*d[5mC]*d[5mC]*d[5mC]*kA*kT*k[5mC]) [compound 799285],% inhibition of SMAD7 mRNA expression,[4],36%
799286 (antisense kG*k[5mC]*kT*d[5mC]*dA*dG*dG*d[5mC]*dT*dT*d[5mC]*dA*d[5mC]*kT*kG*k[5mC]) [compound 799286],% inhibition of SMAD7 mRNA expression,[4],0%
799287 (antisense kT*k[5mC]*kT*dG*d[5mC]*dT*d[5mC]*dA*dG*dG*d[5mC]*dT*dT*k[5mC]*kA*k[5mC]) [compound 799287],% inhibition of SMAD7 mRNA expression,[4],15%
799288 (antisense kT*kA*kA*dT*dG*dG*dT*d[5mC]*dT*dG*d[5mC]*dT*d[5mC]*kA*kG*kG) [compound 799288],% inhibition of SMAD7 mRNA expression,[4],23%
799289 (antisense kT*kA*kT*dT*dA*dA*dT*dG*dG*dT*d[5mC]*dT*dG*k[5mC]*kT*k[5mC]) [compound 799289],% Inhibition,[5],61%
799290 (antisense kG*kA*kT*dT*dA*dT*dT*dA*dA*dT*dG*dG*dT*k[5mC]*kT*kG) [compound 799290],% Inhibition,[5],16%
799291 (antisense kG*k[5mC]*kT*dG*dA*dT*dT*dA*dT*dT*dA*dA*dT*kG*kG*kT) [compound 799291],% Inhibition,[5],0%
799292 (antisense kT*kG*kA*dT*dG*d[5mC]*dT*dG*dA*dT*dT*dA*dT*kT*kA*kA) [compound 799292],% Inhibition,[5],19%
799293 (antisense k[5mC]*k[5mC]*kT*dT*dG*dA*dT*dG*d[5mC]*dT*dG*dA*dT*kT*kA*kT) [compound 799293],% Inhibition,[5],5%
